For two compounds, TAAR4 activation and EC50 results are on record in US20140221499A1, “NOVEL RODENT CONTROL AGENTS AND USES THEREOF” (priority 2011, published 2014).

One test has as its target T1, mouse TAAR4 (Mus musculus, UniProt Q5QD15).
T1 construct: Full Taar coding regions were cloned into pcDNA3.1-(Invitrogen); expressed in transfected cells; host or cells: HEK293
T1 sequence (Q5QD15 1-347): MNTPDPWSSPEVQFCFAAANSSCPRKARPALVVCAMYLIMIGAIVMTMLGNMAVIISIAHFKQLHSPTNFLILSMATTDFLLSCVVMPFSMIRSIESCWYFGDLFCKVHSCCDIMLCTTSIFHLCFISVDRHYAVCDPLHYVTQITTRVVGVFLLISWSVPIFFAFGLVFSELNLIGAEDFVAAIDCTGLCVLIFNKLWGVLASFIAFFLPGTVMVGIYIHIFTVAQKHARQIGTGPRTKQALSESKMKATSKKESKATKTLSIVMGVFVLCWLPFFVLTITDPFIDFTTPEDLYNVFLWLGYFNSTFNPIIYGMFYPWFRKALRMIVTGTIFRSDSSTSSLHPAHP
The test can be described thus: TAAR4 CRE-SEAP reporter gene assay in transfected HEK293 cells. The class given is cell-based. Particulars: 10 μM. In general terms: Reporter assays use an easily measured gene product as a stand-in for the process of interest.

Another test deals with T2, mTAAR7f (Mus musculus, UniProt Q5QD08).
T2 sequence (Q5QD08 1-358): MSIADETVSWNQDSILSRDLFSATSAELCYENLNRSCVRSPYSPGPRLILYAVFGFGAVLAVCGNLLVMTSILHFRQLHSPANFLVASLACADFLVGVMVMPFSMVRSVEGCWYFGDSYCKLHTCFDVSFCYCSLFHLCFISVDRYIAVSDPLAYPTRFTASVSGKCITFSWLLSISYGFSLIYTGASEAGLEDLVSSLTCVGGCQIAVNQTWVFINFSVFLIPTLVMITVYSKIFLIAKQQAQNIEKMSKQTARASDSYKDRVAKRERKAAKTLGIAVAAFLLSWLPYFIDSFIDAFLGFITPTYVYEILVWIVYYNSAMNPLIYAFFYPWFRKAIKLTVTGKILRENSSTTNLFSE
The test can be described thus: CRE-SEAP reporter gene assay in HEK293 cells transfected with mTAAR7f. The note with it: FIG. 11B, not the mutant mTAAR7f-SS, functional with or without 'Rho tag', EC50 ± s.e.m., 4-parameter Hill equation. The class given is cell-based. On the set-up: Full Taar coding regions were cloned into pcDNA3.1; expressed in transfected cells; host or cells: HEK293. As to the method:
FIG. 11 illustrates the dose-dependent responses of TAARs to amines. HEK293 cells were cotransfected with plasmids encoding CRE-SEAP and rTAARs (a) or mTAARs (b), incubated with concentrations of ligands indicated, and assayed for reporter activity (triplicates±s.d.). EC50 values (±s.e.m, bottom right) were calculated using SigmaPlot (Systat Software) and a 4-parameter Hill equation.
Chemicals tested for the ability to activate mouse TAARs include those previously described (Liberles, S. D., and Buck, L. B. (2006) A second class of chemosensory receptors in the olfactory epithelium, Nature 442, 645-650), as well as the following mixes (5 μM of each indicated compounds). Mix 1: N,N-dimethyl-cyclohexylamine, N,N-dimethyl-phenylethylamine, creatinine, taurine. […]
Full Taar coding regions were cloned into pcDNA3.1-(Invitrogen) with or without a 5′ DNA extension of 69 bp encoding the first 20 amino acids of bovine rhodopsin followed by a cloning linker ([…]). […] Fluorescence was measured on an EnVision plate reader (Perkin Elmer) and SEAP activity graphed as relative fluorescence of a phosphatase substrate.
Here, we set out to identify agonists for additional mouse and rat TAARs. […] Transfected cells were incubated with test chemicals, and phosphatase activity was quantified with a fluorescent substrate as a reporter for TAAR activation. […]

Each structure is given as a SMILES string.

Procedure for mouse TAAR4: HEK293 cells were co-transfected with TAAR expression plasmids and a cAMPdependent reporter gene encoding secreted alkaline phosphatase (CRE-SEAP). Transfected cells were incubated with urine extracts from different mammalian species, and phosphatase activity was quantified with a fluorescent substrate as a reporter for TAAR activation.
Test urines were diluted in serum-free media containing penicillin G (100 Units/ml, Invitrogen) and streptomycin sulfate (100 mg/ml, Invitrogen). SEAP activity is measured as fluorescence resulting from dephosphorylation of a substrate, 4-methylumbelliferyl phosphate. Fluorescence values were obtained using an EnVision plate reader (Perkin Elmer) and are reported directly without normalization.

On to `NCCc1ccccc1` [2-phenylethylamine], for which the TAAR4 activation entry on mouse TAAR4 is listed as “activates TAAR4”. The EC50 is the concentration giving half of the maximal effect. Read a low EC50 as higher potency in that assay. Turning to `CN(C)C1CCCCC1` [N,N-DIMETHYLCYCLOHEXYLAMINE, N,N-dimethylcyclohexylamine], it took 440 ± 130 nM to reach a half-maximal effect on mTAAR7f (EC50).
